# Laboratory results published in patent US20180289666A1, “FLAVONOLIGNANS FOR TREATMENT OF AUTOIMMUNE INFLAMMATORY DISEASES” (Macau University of Science and Technology, priority 2017, published 2018).
# Read-outs that look alike come from different tables or passages of the source.
# Key:
# [1] = test system: MCD diet induced NASH mice; experiment: Plasma metabolomics by LC-MS/MS in MCD diet induced NASH mice; format: in vivo, C57Bl/6 mice; conditions: Silybin 300 mg/kg, * P < 0.05, ** P < 0.01
# Method: The plasma sample (200 μL) was thawed on ice for 5 min prior to sample preparation and was mixed with 200 μL of 10 mM N-ethylmaleimide (NEM) in PBS buffer solution and 1000 μL of methanol containing internal standard (I.S.) Phe-d5 in 10 ng/ml. This mixture was incubated at −20° C. for 20 min, and then centrifuged at 12000 rpm for 10 min at 4° C. The supernatant was completely dried under nitrogen flow (Pressure Blowing Concentrator, Tokyo Rikakika, Tokyo, Japan) and reconstituted with distilled water.
# LC-MS/MS analysis was performed on A Waters ACQUITY UPLC coupled with a 4000 Q-TRAP mass spectrometer. Chromatographic separation was carried on a Waters X Bridge™ BEH C18 analytical column (2.5 μm, 3.0×100 mm; Waters, Torrance, Calif.) with a mobile phase composed of 0.1% formic acid water (solvent A) and methanol (solvent B) which was running in a gradient program: 0-3.0 min (0%-1% B); 3.0-10.0 min (1-3% B); 10.0-14.0 min (3-50% B); 14.0-18.0 min (50-95% B); 18.0-22.0 min (95-0% B); followed by a 3-min re-equilibration step. The injection volume was 10 μl at 4° C. and flow rate was 0.6 ml/min. Electrospray (ESI) source were used in both positive and negative ion mode. The source parameters were set as follows: gas temperature: 450° C.; the ion spray voltage, ±4500 V; ion source gas 1 (nebulizer gas) 40 psi (N2); ion source gas 2 (auxiliary gas), 40 psi (N2); curtain gas: 20 psi. The MS/MS analysis was acquired in targeted MS/MS (MRM) mode with the collision energy ranging from 10 V to 40 V. All UPLC-MS data were obtained by AB Analyst Software (Version 1.6.2). Table 1 lists the 72 metabolites that are identified in the plasma samples from both AIA and MCD-diet induced NASH animal studies. The intensity of each ion was normalized with respect to peak area of I.S. for each chromatogram prior to multivariate statistical analysis.
# The normalized data were exported and further processed by PCA and PLS-DA using a multivariate analysis package SIMCA-P software (Umea, Sweden). Model quality was evaluated based on the relevant values of R^2 and Q^2. Potential markers of interest were extracted from the values of variable importance in the projections (VIP>1), which were constructed from PLS-DA analysis. P values were obtained from Student's t-test (P<0.05). Hierarchical clustering analysis (HCA) was performed using bioinformatics software Multi Experiment Viewer (The Institute of Genomic Research, MA, USA) for visualization and organization of metabolite profiles.
# Plasma samples of MCD-diet model were analyzed by LC-MS/MS for better understanding the functional metabolism in NASH model as well as the mechanism of Silybin treatment. […] OPLS-DA (R^2X=0.877, Q^2=0.749) was also used to identify and rank signature metabolites explaining most of the variance of metabolomes among the control, model and treatment group based on VIP scores and/or P value (FIG. 9). Unsupervised hierarchical clustering of this metabolite set classified NASH vs. control mice with 100% accuracy in both cohorts. A 15-metabolite signature with top-ranked VIP scores (VIP>1.0) separated control, model and Silybin treatment groups (p<0.05) was identified in Table 18 that distinguish each groups.
# AIA rats = conditions: for ESR: day 42, read at 15 min, ± SD
# [2] = test system: MCD diet induced NASH mice; experiment: MCD diet induced NASH mice: body and liver weight, liver histology, serum and liver biomarkers; format: in vivo, C57Bl/6 mice; conditions: for Ballooning (histological score) / Inflammation (histological score) / Steatosis (histological score): MCD diet induced NASH mice, n = 6-8
# Method: Male wild-type (WT) mice C57Bl/6 were fed either MCS chow diet (Trophic Animal Feed High-tech Co., Ltd, China 20, #TP 3005GS); MCD diet (Trophic Animal Feed High-tech Co., Ltd, China, #TP 3005G) for 8 weeks. Animals were randomly divided into four groups (n=10): 1) controls, fed a standard control MCS diet; 2) […] fed a high-fat MCD diet; 3) rats fed the MCD diet treated with Silybin (150 mg/kg, oral) and 4) rats fed the MCD diet treated with Silybin (300 mg/kg, oral). Silybin was dissolved with solvent of 35% PEG400: 15% Cremophor EL: 5% ethanol: 45% saline. Body weight was intermittently monitored during the diet-induction period and every two or three days during the intervention period.
# At the end of the 8 weeks, mice were sacrificed under ether anesthesia. The liver were immediately removed and weighed. A large portion of liver was snap-frozen in the liquid N2 with remaining tissue was fixed in 10% buffer formalin, processed and embedded in paraffin for histological examination after H&E staining. For evaluation of steatohepatitis, the level of ALT, AST, TG, and TC were determined according to manufacturer's instructions with commercial kits. Moreover, histological assessment and scoring according to standardized criteria were carried out by a pathologist blinded to the study (Kleiner, D. E., et al., Hepatology, 2005, 41(6): p. 1313-21). The cytokines levels in serum were measured using commercially available ELISA kits including TNF-α, and IL-6 as well as SOD.
# [3] = AIA rats, Silybin 200 mg/kg oral, day 42
# [4] = MCD diet NASH mice, versus vehicle treated MCD diet model group
compound,measurement,setting,value
COc1cc([C@H]2Oc3cc([C@H]4Oc5cc(O)cc(O)c5C(=O)[C@@H]4O)ccc3O[C@@H]2CO)ccc1O (stereo in doubt) [Silybin],Trend SB300 VS Model: Malondialdehyde (MDA),[1],↓**
same,"Trend SB300 VS Model: 4-(2-aminophenyl)-2,4-dioxobutanoic acid",[1]; plasma,↓*
same,Trend SB300 VS Model: 5-hydroxytryptamine,[1]; plasma,↓**
same,Trend SB300 VS Model: GSH,[1]; plasma,↑*
same,Trend SB300 VS Model: GSH/GSSG,[1]; plasma,↑*
same,Trend SB300 VS Model: GSSG,[1]; plasma,↓*
same,Trend SB300 VS Model: Glycochenodeoxycholic acid(GCDCA),[1]; plasma,↓*
same,Trend SB300 VS Model: L-Kynurenine,[1]; plasma,↑**
same,Trend SB300 VS Model: LPC(16:1),[1]; plasma,↓*
same,Trend SB300 VS Model: LPC(18:0),[1]; plasma,↑*
same,Trend SB300 VS Model: LPC(20:1),[1]; plasma,↑*
same,Trend SB300 VS Model: LPC(22:6),[1]; plasma,↑*
same,Trend SB300 VS Model: N-Phenylacetylglycine,[1]; plasma,↓*
same,Trend SB300 VS Model: Ophthalmic acid,[1]; plasma,↓*
same,Trend SB300 VS Model: Oxaloacetate,[1]; plasma,↑*
same,Trend SB300 VS Model: Proline,[1]; plasma,↓*
same,Trend SB300 VS Model: Trigonelline,[1]; plasma,↑**
same,Trend SB300 VS Model: Uric acid,[1]; plasma,↓**
same,Trend SB300 VS Model: Uridine,[1]; plasma,↓**
same,Trend SB300 VS Model: Ursodeoxycholic acid (UDCA),[1]; plasma,↓*
same,ESR,"AIA rats; AIA rats, Silybin 100 mg/kg oral daily",34.35 ± 9.25 mm
same,ESR,"AIA rats; AIA rats, Silybin 200 mg/kg oral daily",significantly (P<0.001) reduced
same,ESR,"AIA rats; AIA rats, Silybin 200 mg/kg oral daily, listed as SB",28.09 ± 11.14 mm
same,arthritis score,AIA rats; [3],7.60
same,paw volume,AIA rats; [3],3.02 mL
same,"relative organ weight ratio (such as liver index, spleen index, kidney index, lung index)","AIA rats; rat, in vivo",reversed changes
same,body weight,"[2]; MCD diet NASH mice, Silybin 300 mg/kg",no effect
same,liver/body weight ratio,"[2]; MCD diet NASH mice, Silybin 300 mg/kg, P<0.05",moderate decrease
same,"scores of steatosis, inflammation and ballooning","[2]; MCD diet NASH mice, Silybin treated versus MCD diet group, P<0.01",lower scores
same,cytokines levels,[2]; [4],significantly restored
same,lipid profiles,[2]; [4],significantly restored
same,oxidative stress levels,[2]; [4],significantly restored
same,serum transaminase,[2]; [4],significantly restored
same,Ballooning (histological score),[2]; Silybin 150 mg/kg oral,0.96 ± 0.04
same,Inflammation (histological score),[2]; Silybin 150 mg/kg oral,0.92 ± 0.10
same,Steatosis (histological score),[2]; Silybin 150 mg/kg oral,1.00 ± 0
same,Ballooning (histological score),[2]; Silybin 300 mg/kg oral,0.83 ± 0.09
same,Inflammation (histological score),[2]; Silybin 300 mg/kg oral,0.88 ± 0.12
same,Steatosis (histological score),[2]; Silybin 300 mg/kg oral,0.92 ± 0.13
